Results published in patent US20060160791A1, “Wood preservative formulations” (priority 1999, published 2006).

Tested on: soft rot fungi belonging to the groups Ascomycotina and Deuteromycotina
Assay: Soft rot soil burial test on treated beech blocks (similar to ENV-807, toxic limits per EN113)
Conditions: for Toxic Limit Value: active ingredient retention, beech blocks, John Innes No. 2 compost, 14 weeks at 28° C, lower-upper limits spanning pass/fail (>3% mass loss); for Effective Retention of Tebuconazole: tebuconazole retention needed
Source text: The toxic limit value for a particular biocidal compound is the concentration of the compound which is required to prevent degradation (defined as >3% mass loss) of a substrate by a target organism. Toxic limits are normally expressed as two experimentally-determined concentrations that span the pass/fail point of the test. The toxic index is the midpoint of these two values.
A convenient method of assessing the synergistic properties of a formulation is to use a ‘synergistic index’. This may be defined as: [formula]
The theoretical toxic index may be calculated by interpolation to the theoretical line of action. A SI of 1 indicates no synergism. As the SI increases, so the degree of synergism also increases.
Testing was carried out to determine the performance of active ingredients alone and in mixture using a soft rot soil burial method.
Beech (Fagus sylvatica) blocks measuring 5×5×30 mm were prepared from local grown, seasoned, knot-free sapwood. After oven drying and weighing, the blocks were vacuum impregnated (in groups of 6 replicates) with retentions of the test preservatives which had been freshly prepared using deionised water as the diluent.
After treatment, the blocks were covered with polythene for a period of one week to reduce the drying rate and allow any fixation reactions to occur. They were then fully ventilated by standing on the laboratory bench for 2 weeks and allowed to dry.
Each series of blocks was then exposed in John Innes (No. 2) compost, previously wetted to 110% of water holding capacity using deionised water. The test systems were then incubated for 14 weeks at 28° C.
Following incubation, blocks were removed from the soil, gently rinsed in clean water and then oven dried and re-weighed.
Preservative retention and weight change data were calculated for each block and the results expressed as toxic limit values according to the criteria laid down in the test method EN113.
Where the lower toxic limit value provides a weight loss of 10% m/m or greater, then the upper toxic limit value has been used to indicate the probable effective retention of preservative; this is in accordance with EN113.

Compound: CCCC1COC(Cn2cncn2)(c2ccc(Cl)cc2Cl)O1 (stereo not shown) [Propiconazole, 1-[[2-(2-4-dichlorophenyl)-4-propyl-1,3-dioxolan-2-yl]methyl]-1H-1,2,4-triazole]
- Toxic Limit Value: >7.0 kgm^−3
- Effective Retention of Propiconazole (propiconazole retention needed, alone or as part of the named mixture, EN113 conventions): >7.0 kgm^−3

Compound: N,N-didecyl-N-methyl-poly(oxyethyl)ammonium propionate [Bardap 26]
- Effective Retention of Bardap 26 (Bardap 26 retention needed, alone or as part of the named mixture, EN113 conventions): >6.2 kgm^−3
- Toxic Limit Value: >6.2 kgm^−3

Compound: [O-][S+]1CCON=C1c1cc2ccccc2s1 (stereo not shown) [Bethoxazin, 3-(benzo[b]thien-2-yl)-5,6-dihydro-1,4,2-oxathiazine 4-oxide]
- Toxic Limit Value: >0.77 kgm^−3
- Effective Retention of Bethoxazin (bethoxazin retention needed, alone or as part of the named mixture, EN113 conventions): >0.77 kgm^−3

Compound: CC(C1CC1)C(O)(Cn1cncn1)c1ccc(Cl)cc1 (stereo not drawn) [Cyproconazole, (2RS,3RS; 2RS,3SR)-2-(4-chlorophenyl)-3-cyclopropyl-1-(1H-1,2,4-triazol-1-yl)butan-2-ol]
- Effective Retention of Cyproconazole (cyproconazole retention needed, alone or as part of the named mixture, EN113 conventions): 1.25 kgm^−3

Compound: CC(C)(C)C(O)(CCc1ccc(Cl)cc1)Cn1cncn1 (stereo not drawn) [Tebuconazole, alpha-[2-(4-chlorophenyl)ethyl]-alpha(1,1-dimethylethyl)-1H-1,2,4-triazole-1-ethanol]
- Toxic Limit Value: >7.0 kgm^−3
- Effective Retention of Tebuconazole (alone or as part of the named mixture, EN113 conventions): >7.0 kgm^−3
- Effective Retention of Tebuconazole (alone or as part of the named mixture, EN113 conventions, listed as tebuconazole): > 7 kgm^−3
